Patent US20190307843A1, “SINGLE DOSE METHODS FOR PREVENTING AND TREATING FUNGAL INFECTIONS” (Cidara Therapeutics, Inc., priority 2016, published 2019)
≈ marks a conversion by molar mass, not a printed value. Where “and” joins values, the source holds several entries; their conditions need not be identical. Identical values can stand only once. Like-named read-outs stand apart in the source and are kept apart here. Starred links: 1 amine or outer side, 2 acyl side, 3 side chain; linkers in the order of their positions; H or OH if unused. Positions of bridges follow the written chain, without caps; N, C: chain ends. Non-standard residues stand in square brackets, D forms with d. Residues, ends and D or L forms follow the SMILES beside them. *: point of attachment. hTyr(3S-OH,4S-OH,3'-OSO3H) = N[C@H](C(=O)O)[C@H](O)[C@@H](O)c1ccc(O)c(OS(=O)(=O)O)c1; Orn(4R-OH,5R-OH) = O=C([C@H](C[C@@H](O)[C@@H](O)N[*:3])N[*:1])[*:2]; Pro(3S-OH,4S-Me) = C[C@H]1CN[C@H](C(=O)O)[C@H]1O; X1 = CCCCCOc1ccc(-c2cc(-c3ccc(C(=O)*)cc3)no2)cc1; Gln(3R-OH) = NC(=O)C[C@@H](O)[C@H](N)C(=O)O; Hyp = O=C(O)[C@@H]1C[C@@H](O)CN1

Experiments:
A. fumigatus AF293 [1] = experiment: Murine model of pulmonary aspergillosis (Example 19), survival
A. fumigatus AF293 [2] = experiment: Pulmonary aspergillosis, prophylaxis, neutropenic ICR mice (Examples 17, 18), survival; type: in vivo, Aspergillus fumigatus; settings: micafungin 5 mg/kg
Procedure: Intranasal infection with A. fumigatus AF293 (10^5 CFU/mouse) on Day 0. Prophylaxis CD101 as a single dose (IP; 5, 10, 20 mg/kg) or posaconazole (PO; 2 and 10 mg/kg) 1 day prior to infection. Survival monitored for 10 days.
Intranasal challenge with A. fumigatus AF293 (10^5 CFU/mouse) was initiated on Day 0 and prophylaxis with CD101 as a single dose (IP; 5, 10, 20 mg/kg) or posaconazole (PO; 2 and 10 mg/kg) was started 1 day prior to infection. Survival was monitored for 10 days.

Candida auris strains = experiment: Candida auris antifungal susceptibility testing (CLSI M27-A3), 38 strains; type: cell-based; settings: for MIC: Candidozyma auris, 24 h, read-out: MIC
[3] = Micafungin 5 mg/kg IP once, Day 1 pre-infection

CCCCCOc1ccc(-c2cc(-c3ccc(C(=O)N[C@H]4C[C@@H](O)[C@@H](O)NC(=O)[C@@H]5[C@@H](O)[C@@H](C)CN5C(=O)[C@H]([C@H](O)CC(N)=O)NC(=O)[C@H]([C@H](O)[C@@H](O)c5ccc(O)c(OS(=O)(=O)O)c5)NC(=O)[C@@H]5C[C@@H](O)CN5C(=O)[C@H]([C@@H](C)O)NC4=O)cc3)no2)cc1 [Micafungin, micafungin] (X1-[Orn(4R-OH,5R-OH)]T[Hyp][hTyr(3S-OH,4S-OH,3'-OSO3H)][Gln(3R-OH)][Pro(3S-OH,4S-Me)]; lactam 1-C)
survival time post infection, range (A. fumigatus AF293 [1]; Micafungin 5 mg/kg IP once): 71 to 162 h | Mean Survival (A. fumigatus AF293 [1]; [3]): 92 h and 92.0 h | Median Survival (A. fumigatus AF293 [1]; [3]): 80 h and 80.0 h | survival (A. fumigatus AF293 [1]; micafungin 5 mg/kg once one day pre-infection): did not show any improvement in survival | survival (A. fumigatus AF293 [2]): no survivors | number of resistant isolates (Candida auris strains): 4 | MIC (Candida auris strains; strain 1 VPCI 669/P/12): 0.125 µg/mL (≈ 0.0984 µM) | MIC (Candida auris strains; strain 2 VCPI 671/P/12): 0.125 µg/mL (≈ 0.0984 µM) | MIC (Candida auris strains; strain 3 VCPI 674/P/12): 0.06 µg/mL (≈ 0.0472 µM) | MIC (Candida auris strains; strain 4 VCPI 683/P/12): 0.125 µg/mL (≈ 0.0984 µM) | MIC (Candida auris strains; strain 5 VCPI 692/P/12): 0.125 µg/mL (≈ 0.0984 µM) | MIC (Candida auris strains; strain 6 VCPI 712/P/12): 0.125 µg/mL (≈ 0.0984 µM) | MIC (Candida auris strains; strain 7 VCPI 471/P/13): 0.25 µg/mL (≈ 0.197 µM) | MIC (Candida auris strains; strain 8 VCPI 475/P/13): 0.125 µg/mL (≈ 0.0984 µM) | MIC (Candida auris strains; strain 9 VCPI 478/P/13): 0.125 µg/mL (≈ 0.0984 µM) | MIC (Candida auris strains; strain 10 VCPI 479/P/13): 0.125 µg/mL (≈ 0.0984 µM) | MIC (Candida auris strains; strain 11 VCPI 480/P/13): 0.125 µg/mL (≈ 0.0984 µM) | MIC (Candida auris strains; strain 12 VCPI 482/P/13): 0.125 µg/mL (≈ 0.0984 µM) | MIC (Candida auris strains; strain 13 VCPI 483/P/13): 0.125 µg/mL (≈ 0.0984 µM) | MIC (Candida auris strains; strain 14 VCPI 1130/P/13): 0.125 µg/mL (≈ 0.0984 µM) | MIC (Candida auris strains; strain 15 VCPI 1132/P/13): 0.125 µg/mL (≈ 0.0984 µM) | MIC (Candida auris strains; strain 16 VCPI 1133/P/13): 16 µg/mL (≈ 12.6 µM) | MIC (Candida auris strains; strain 17 VCPI 105/P/14): 0.125 µg/mL (≈ 0.0984 µM) | MIC (Candida auris strains; strain 18 VCPI 107/P/14): 0.06 µg/mL (≈ 0.0472 µM) | MIC (Candida auris strains; strain 19 VCPI 510/P/14): 0.125 µg/mL (≈ 0.0984 µM) | MIC (Candida auris strains; strain 20 VCPI 511/P/14): 0.125 µg/mL (≈ 0.0984 µM) | MIC (Candida auris strains; strain 21 VCPI 512/P/14): 0.125 µg/mL (≈ 0.0984 µM) | MIC (Candida auris strains; strain 22 VCPI 513/P/14): 0.125 µg/mL (≈ 0.0984 µM) | MIC (Candida auris strains; strain 23 VCPI 514/P/14): 0.25 µg/mL (≈ 0.197 µM) | MIC (Candida auris strains; strain 24 VCPI 250/P/14): 0.125 µg/mL (≈ 0.0984 µM) | MIC (Candida auris strains; strain 25 VCPI 265/P/14): 16 µg/mL (≈ 12.6 µM) | MIC (Candida auris strains; strain 26 VCPI 266/P/14): 0.125 µg/mL (≈ 0.0984 µM) | MIC (Candida auris strains; strain 27 VCPI 462/P/14): 16 µg/mL (≈ 12.6 µM) | MIC (Candida auris strains; strain 28 VCPI 463/P/14): 0.125 µg/mL (≈ 0.0984 µM) | MIC (Candida auris strains; strain 29 VCPI 467/P/14): 0.25 µg/mL (≈ 0.197 µM) | MIC (Candida auris strains; strain 31 VCPI 478/P/14): 0.5 µg/mL (≈ 0.394 µM) | MIC (Candida auris strains; strain 32 VCPI 518/P/14): 0.25 µg/mL (≈ 0.197 µM) | MIC (Candida auris strains; strain 33 VCPI 550/P/14): 0.25 µg/mL (≈ 0.197 µM) | MIC (Candida auris strains; strain 34 VCPI 714/P/14): 0.125 µg/mL (≈ 0.0984 µM) | MIC (Candida auris strains; strain 35 VCPI 717/P/14): 0.125 µg/mL (≈ 0.0984 µM) | MIC (Candida auris strains; strain 36 VCPI 1060/P/14): 0.25 µg/mL (≈ 0.197 µM) | MIC (Candida auris strains; strain 37 VCPI 74/P/15): 0.25 µg/mL (≈ 0.197 µM)
